Tests used:
[1] = system: bamyardgrass; assay: Test B flood test barnyardgrass; format: in vivo, Echinochloa crus-galli
Procedure, shortened: (§1)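 Read-out is a visual response score from 0 (no effect) to 10 (complete control), assigned by comparison with untreated controls. Treatment was applied at the 2-leaf stage, and plants stayed in the greenhouse for twelve to sixteen days before scoring.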

[2] = system: crabgrass; assay: Test B pre/postemergence crabgrass; format: in vivo, Digitaria sanguinalis
Procedure, shortened: (§2)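 Response is a visual 0-to-10 score relative to untreated plants, where 0 means no effect and 10 means complete control, taken twelve to sixteen days after application. Treatments went onto soil at planting and onto foliage of 1- to 4-leaf plants, using a surfactant-containing non-phytotoxic solvent.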

[3] = system: rice; assay: Test B flood test rice; format: in vivo, Oryza sativa
Procedure, shortened: as §1

[4] = system: smallflower flatsedge; assay: Test B flood test smallflower flatsedge; format: in vivo, Cyperus difformis
Procedure, shortened: as §1

[5] = system: giant foxtail; assay: Test B pre/postemergence giant foxtail; format: in vivo, Setaria faberii
Procedure, shortened: as §2

[6] = system: surinam grass; assay: Test B pre/postemergence surinam grass; format: in vivo, Brachiaria decumbens
Procedure, shortened: as §2

[7] = system: pigweed; assay: Test B pre/postemergence pigweed; format: in vivo, Amaranthus retroflexus
Procedure, shortened: as §2

[8] = system: bedstraw; assay: Test B pre/postemergence bedstraw; format: in vivo, Galium aparine
Procedure, shortened: as §2

[9] = system: corn; assay: Test B pre/postemergence corn; format: in vivo, Zea mays
Procedure, shortened: as §2

[10] = system: cocklebur; assay: Test B pre/postemergence cocklebur; format: in vivo, Xanthium strumarium
Procedure, shortened: as §2

[11] = system: wild oat; assay: Test B pre/postemergence wild oat; format: in vivo, Avena fatua
Procedure, shortened: as §2

[12] = system: wheat; assay: Test B pre/postemergence wheat; format: in vivo, Triticum aestivum
Procedure, shortened: as §2

[13] = system: velvetleaf; assay: Test B pre/postemergence velvetleaf; format: in vivo, Abutilon theophrasti
Procedure, shortened: as §2

[14] = system: soybean; assay: Test B pre/postemergence soybean; format: in vivo, Glycine max
Procedure, shortened: as §2

[15] = system: morningglory; assay: Test B pre/postemergence morningglory; format: in vivo, Ipomoea hederacea
Procedure, shortened: as §2

[16] = system: blackgrass; assay: Test B pre/postemergence blackgrass; format: in vivo, Alopecurus myosuroides
Procedure, shortened: as §2

[17] = Postemergence, Rate 62 g/ha, scale 0 to 10, 0 is no effect, 10 is complete control
[18] = Rate 62 g/ha, headed Pre-emergence (flood test species), scale 0 to 10 (0 no effect, 10 complete control)
[19] = Rate 125 g/ha, Postemergence section (flood test species), scale 0 to 10, 0 no effect, 10 complete control
[20] = Rate 125 g/ha, Pre-emergence, flood test species, scale 0 to 10 where 0 is no effect and 10 is complete control
[21] = Rate 250 g/ha, headed Pre-emergence (flood test species), scale 0 to 10 (0 no effect, 10 complete control)
[22] = Rate 500 g/ha, Postemergence section of Table B, 0 to 10 scale (0 no effect, 10 complete control)
[23] = Rate 500 g/ha, headed Pre-emergence (flood test species), scale 0 to 10 (0 no effect, 10 complete control)
[24] = Rate 1000 g/ha, Pre-emergence (as headed), scale 0 to 10
[25] = flood test, listed under Postemergence, Rate 250 g/ha, scale 0 to 10, 0 no effect, 10 complete control
[26] = Postemergence, Rate 250 g/ha, scale 0 to 10, 0 no effect, 10 complete control
[27] = Preemergence, Rate 62 g/ha, scale 0 to 10, 0 is no effect, 10 is complete control
[28] = Preemergence, Rate 125 g/ha, scale 0 to 10 (0 no effect, 10 complete control)
[29] = Preemergence, Rate 250 g/ha, scale of 0 to 10 where 0 is no effect and 10 is complete control
[30] = Preemergence, Rate 500 g/ha, scale 0 (no effect) to 10 (complete control)
[31] = Rate 125 g/ha, Postemergence, scale 0 to 10, 0 no effect, 10 complete control
[32] = Rate 500 g/ha, Postemergence, 0 to 10 scale (0 no effect, 10 complete control)
[33] = Rate 2000 g/ha, Pre-emergence (as headed), scale 0 to 10

For `Cc1cccc(C)c1-n1c(=O)on(C(=O)N(c2ccc(F)cc2)C(C)C)c1=O` [Compound 18], the “Barnyardgrass plant response rating” value [1, 17] was 0, the “Barnyardgrass plant response rating” value [1, 18] was 2 and the “Barnyardgrass plant response rating” value [1, 19] was 0. The “Barnyardgrass plant response rating” value [1, 20] was 2, the “Barnyardgrass plant response rating” value [1, 21] was 2 and the “Barnyardgrass plant response rating” value [1, 22] was 10. The “Plant response rating, Barnyardgrass” value [1, 23] was 8, the “Barnyardgrass plant response rating” value [1, 24] was 9 and the “Barnyardgrass plant response rating” value ([1]; Rate 2000 g/ha, Pre-emergence (as headed), scale 0 to 10, 0 no effect, 10 complete control) was 9. For the same compound, the “Barnyardgrass plant response rating” value [1, 25] was 9, the “Crabgrass plant response rating” value [2, 17] was 0 and the “Crabgrass plant response rating” value [2, 26] was 7. For the same compound, the “Plant response rating, Crabgrass” value [2, 27] was 6, the “Plant response rating, Crabgrass” value [2, 28] was 5 and the “Plant response rating, Crabgrass” value [2, 29] was 8. The “Crabgrass plant response rating” value [2, 30] was 10, the “Crabgrass plant response rating” value [2, 31] was 3 and the “Crabgrass plant response rating” value [2, 32] was 9. The “Rice plant response rating” value [3, 17] was 0, the “Rice plant response rating” value [3, 18] was 0 and the “Rice plant response rating” value [3, 19] was 0. For the same compound, the “Rice plant response rating” value [3, 20] was 0, the “Rice plant response rating” value [3, 21] was 0 and the “Rice plant response rating” value [3, 22] was 5. For the same compound, the “Plant response rating, Rice” value [3, 23] was 0, the “Rice plant response rating” value [3, 24] was 0 and the “Rice plant response rating” value [3, 33] was 0. For the same compound, the “Rice plant response rating” value [3, 25] was 2, the “S. Flatsedge plant response rating” value [4, 17] was 0 and the “S. Flatsedge plant response rating” value ([4]; Pre-emergence, Rate 1000 g/ha, scale 0 to 10 (0 no effect, 10 complete control)) was 0. The “S. Flatsedge plant response rating” value [4, 18] was 0, the “S. Flatsedge plant response rating” value [4, 19] was 0 and the “S. Flatsedge plant response rating” value [4, 20] was 0. For the same compound, the “S. Flatsedge plant response rating” value [4, 21] was 0, the “Plant response rating, S. Flatsedge” value [4, 23] was 6 and the “S. Flatsedge plant response rating” value [4, 33] was 0. For the same compound, the “S. Flatsedge plant response rating” value [4, 25] was 6, the “Giant foxtail plant response rating” value [5, 17] was 0 and the “Giant foxtail plant response rating” value [5, 26] was 1. The “Plant response rating, Giant foxtail” value [5, 27] was 2, the “Plant response rating, Giant foxtail” value [5, 28] was 5 and the “Plant response rating, Giant foxtail” value [5, 29] was 8. The “Giant foxtail plant response rating” value [5, 30] was 9, the “Giant foxtail plant response rating” value [5, 31] was 1 and the “Giant foxtail plant response rating” value [5, 32] was 3. For the same compound, the “B. signalgrass plant response rating” value [6, 17] was 0, the “B. signalgrass plant response rating” value [6, 26] was 0 and the “Plant response rating, B. signalgrass” value [6, 27] was 0. The “Plant response rating, B. signalgrass” value [6, 28] was 0, the “Plant response rating, B. signalgrass” value [6, 29] was 7 and the “B. signalgrass plant response rating” value [6, 30] was 8. The “B. signalgrass plant response rating” value [6, 31] was 0, the “B. signalgrass plant response rating” value [6, 32] was 2 and the “Redroot pigweed plant response rating” value [7, 17] was 1. The “Redroot pigweed plant response rating” value [7, 26] was 1, the “Plant response rating, Redroot pigweed” value [7, 27] was 4 and the “Plant response rating, Redroot pigweed” value [7, 28] was 7. For the same compound, the “Plant response rating, Redroot pigweed” value [7, 29] was 8, the “Redroot pigweed plant response rating” value [7, 30] was 9 and the “Redroot pigweed plant response rating” value [7, 31] was 1. The “Redroot pigweed plant response rating” value [7, 32] was 6, the “Bedstraw plant response rating” value [8, 17] was 2 and the “Bedstraw plant response rating” value [8, 26] was 7. The “Plant response rating, Bedstraw” value [8, 27] was 0, the “Plant response rating, Bedstraw” value [8, 28] was 0 and the “Plant response rating, Bedstraw” value [8, 29] was 0. For the same compound, the “Bedstraw plant response rating” value [8, 30] was 3, the “Bedstraw plant response rating” value [8, 31] was 7 and the “Bedstraw plant response rating” value [8, 32] was 9. The “Corn plant response rating” value [9, 17] was 0, the “Corn plant response rating” value [9, 26] was 0 and the “Plant response rating, Corn” value [9, 27] was 0. The “Plant response rating, Corn” value [9, 28] was 0, the “Plant response rating, Corn” value [9, 29] was 0 and the “Corn plant response rating” value [9, 30] was 0. For the same compound, the “Corn plant response rating” value [9, 31] was 0, the “Corn plant response rating” value [9, 32] was 0 and the “Cocklebur plant response rating” value [10, 17] was 0. For the same compound, the “Cocklebur plant response rating” value [10, 26] was 1, the “Plant response rating, Cocklebur” value [10, 27] was 0 and the “Plant response rating, Cocklebur” value [10, 28] was 0. The “Plant response rating, Cocklebur” value [10, 29] was 0, the “Cocklebur plant response rating” value [10, 30] was 0 and the “Cocklebur plant response rating” value [10, 31] was 0. For the same compound, the “Cocklebur plant response rating” value [10, 32] was 2, the “Wild oats plant response rating” value [11, 17] was 0 and the “Wild oats plant response rating” value [11, 26] was 0. For the same compound, the “Plant response rating, Wild oats” value [11, 28] was 0, the “Plant response rating, Wild oats” value [11, 29] was 0 and the “Wild oats plant response rating” value [11, 30] was 5. The “Wild oats plant response rating” value [11, 31] was 0, the “Wheat plant response rating” value [12, 17] was 0 and the “Wheat plant response rating” value [12, 26] was 0. The “Plant response rating, Wheat” value [12, 27] was 0, the “Plant response rating, Wheat” value [12, 28] was 0 and the “Plant response rating, Wheat” value [12, 29] was 0. The “Wheat plant response rating” value [12, 30] was 0, the “Wheat plant response rating” value [12, 31] was 0 and the “Velvetleaf plant response rating” value [13, 17] was 0. For the same compound, the “Velvetleaf plant response rating” value [13, 26] was 1, the “Plant response rating, Velvetleaf” value [13, 27] was 0 and the “Plant response rating, Velvetleaf” value [13, 28] was 0. For the same compound, the “Plant response rating, Velvetleaf” value [13, 29] was 0, the “Velvetleaf plant response rating” value [13, 30] was 0 and the “Velvetleaf plant response rating” value [13, 31] was 0. For the same compound, the “Soybean plant response rating” value [14, 17] was 2, the “Soybean plant response rating” value [14, 26] was 3 and the “Plant response rating, Soybean” value [14, 27] was 0. For the same compound, the “Plant response rating, Soybean” value [14, 28] was 0, the “Plant response rating, Soybean” value [14, 29] was 0 and the “Soybean plant response rating” value [14, 30] was 0. The “Soybean plant response rating” value [14, 31] was 3, the “Morningglory plant response rating” value [15, 17] was 1 and the “Morningglory plant response rating” value [15, 26] was 2. The “Plant response rating, Morningglory” value [15, 27] was 0, the “Plant response rating, Morningglory” value [15, 28] was 0 and the “Plant response rating, Morningglory” value [15, 29] was 0. For the same compound, the “Morningglory plant response rating” value [15, 30] was 2, the “Morningglory plant response rating” value [15, 31] was 1 and the “Morningglory plant response rating” value [15, 32] was 3. For the same compound, the “Blackgrass plant response rating” value [16, 17] was 0, the “Blackgrass plant response rating” value [16, 26] was 3 and the “Plant response rating, Blackgrass” value [16, 27] was 2. The “Plant response rating, Blackgrass” value [16, 28] was 0, the “Plant response rating, Blackgrass” value [16, 29] was 5 and the “Blackgrass plant response rating” value [16, 30] was 5. The “Blackgrass plant response rating” value [16, 31] was 0 and the “Blackgrass plant response rating” value [16, 32] was 3.
